Results reported in patent US20170304286A1 (LAUNX BIOMEDICAL CO., LTD., priority 2014, published 2017).
Values joined by “and” are separate entries in the source; they are usually repeats but may differ in a detail not shown here. Equal values may be shown once. Read-outs that look alike come from different tables or passages of the source.

Columns and labels:
[1] = test system: A549 (lung adenocarcinoma); test: WST-1 cell viability, lung cancer cell line A549; assay type: cell-based; conditions: Homo sapiens
Method: (§1) The cell numbers were counted and reseed as 2×10^6 in culture plate/flask. Then, the culture medium were added to a volume of 10 ml, and the cells were cultured for 2-3 days. Then, the cells were suspended for loading into 96-well plates. The number of cells was 3000 and the volume of the culture medium was 100 μl each well.
(§2) Removing the original culture medium from 96-well plate. Then add 100 μl of commercially drug at a concentration of 10 μM per well. After 72 hours, add the diluted WST-1 reagent to the well with 100 μl/well, and the diluted WST-1 reagent was acquired from the dilution of 9:1 medium and WST-1 stock reagent. Finally, the total volume of each well was 200 μl/well. Culture the 96-well plate at 37° C. for 30 to 90 minutes. Detecting and calculate the survival rate of each cancer cells with an ELISA reader at OD450 nm.

[2] = test system: C-33A (Cervical carcinoma); test: WST-1 cell viability, cervical cancer cell line C-33A; assay type: cell-based; conditions: Homo sapiens, 72 h
Method: as §1, §2

PC-3 = test: WST-1 cell viability, prostate cancer cell line PC-3; assay type: cell-based; conditions: Homo sapiens
Method: as §1, §2

[3] = test system: MCF7 (Mammary Gland, Adenocarcinoma); test: WST-1 cell viability, breast cancer cell line MCF7; assay type: cell-based; conditions: Homo sapiens
Method: as §1, §2

NIH-OVCAR-3 = test: WST-1 cell viability, ovarian cancer cell line NIH-OVCAR-3; assay type: cell-based; conditions: Homo sapiens
Method: as §1, §2

[4] = test system: LoVo(Colorectal Adenocarcinoma); test: WST-1 cell viability, colorectal cancer cell line LoVo; assay type: cell-based; conditions: Homo sapiens, 72 h
Method: as §1, §2

AsPC-1 = test: WST-1 cell viability, pancreatic cancer cell line AsPC-1; assay type: cell-based; conditions: Homo sapiens
Method: as §1, §2

BxPC-3 = test: WST-1 cell viability, pancreatic cancer cell line BxPC-3; assay type: cell-based; conditions: Homo sapiens
Method: as §1, §2

bladder cancer cells = test: Summary of cell viability, bladder cancer; assay type: cell-based; conditions: 72 h, read-out: Inhibitory effect
Method: as §2

prostate cancer cells = test: Summary of cell viability, prostate cancer; assay type: cell-based; conditions: 72 h, read-out: Inhibitory effect
Method: as §2

gastric cancer cells = test: Summary of cell viability, gastric cancer; assay type: cell-based; conditions: gastriccancer, 72 h, read-out: Inhibitory effect
Method: as §2

skin cancer cells = test: Summary of cell viability, skin cancer; assay type: cell-based; conditions: 72 h, read-out: Inhibitory effect
Method: as §2

[5] = test system: gastric cancer cells (AGS); test: Animal model test of gastric cancer, tumor size; assay type: in vivo, mice
Method: In this invention, the female mice were (BALB/cAnN.Cg-Foxn1^nu/CrlNarl) purchased from National Laboratory Animal Center (Taiwan). The weight of the mice were 21±1 g. These mice were subcutaneously injected with gastric cancer cells (AGS) and then put these mice into different cage sat random. The drug test experiment was divided into three groups, include “control group”, “low dose group (100 mg/kg/day)”, and “high dose group (200 mg/kg/day)”. These mice were then injected test drug intraperitoneally once daily […]. The tumor sizes and body weight were measured twice a week. The tumor sizes were measured and calculated by formula: (L×W^2)/2. L represents the tumor longest length. W represents the tumor shortest diameter.

[6] = average of 4 tests, read-out: survival rate (inhibition effect), Average
[7] = 100 mg/kg/day i.p., Fifth measurement
[8] = 100 mg/kg/day i.p., Fifth measurement, mice A, B, C
[9] = 100 mg/kg/day i.p., First measurement
[10] = 100 mg/kg/day i.p., First measurement, mice A, B, C
[11] = 100 mg/kg/day i.p., Fourth measurement
[12] = 100 mg/kg/day i.p., Fourth measurement, mice A, B, C
[13] = 100 mg/kg/day i.p., Second measurement
[14] = 100 mg/kg/day i.p., Second measurement, mice A, B, C
[15] = 100 mg/kg/day i.p., Third measurement
[16] = 100 mg/kg/day i.p., Third measurement, mice A, B, C
[17] = 200 mg/kg/day i.p., Fifth measurement
[18] = 200 mg/kg/day i.p., Fifth measurement, mice A, B, C
[19] = 200 mg/kg/day i.p., First measurement
[20] = 200 mg/kg/day i.p., First measurement, mice A, B, C
[21] = 200 mg/kg/day i.p., Fourth measurement
[22] = 200 mg/kg/day i.p., Fourth measurement, mice A, B, C
[23] = 200 mg/kg/day i.p., Second measurement
[24] = 200 mg/kg/day i.p., Second measurement, mice A, B, C
[25] = 200 mg/kg/day i.p., Third measurement

Structure (SMILES): Fc1ccc([C@@H]2CCNC[C@H]2COc2ccc3c(c2)OCO3)cc1 [Paroxetine]
- viability at 10 µM ([1]; A549, 72 h, A549, average of 4 tests, read-out: survival rate (inhibition effect), Average): 92.4%
- viability at 10 µM ([1]; A549, A549, 72 h, run 0524-10 min, read-out: survival rate (inhibition effect)): 84.2%
- viability at 10 µM ([1]; A549, A549, 72 h, run 0526-10 min, read-out: survival rate (inhibition effect)): 127%
- viability at 10 µM ([1]; A549, A549, 72 h, run 0529-10 min, read-out: survival rate (inhibition effect)): 54%
- viability at 10 µM ([1]; A549, A549, 72 h, run 0531-10 min, read-out: survival rate (inhibition effect)): 104%
- viability at 10 µM [2, 6]: 33.2%
- viability at 10 µM ([2]; run 0524-10 min, read-out: survival rate (inhibition effect)): 33.2%
- viability at 10 µM ([2]; run 0526-10 min, read-out: survival rate (inhibition effect)): 32.1%
- viability at 10 µM ([2]; run 0529-10 min, read-out: survival rate (inhibition effect)): 31.7%
- viability at 10 µM ([2]; run 0531-10 min, read-out: survival rate (inhibition effect)): 35.8%
- viability at 10 µM (PC-3; PC-3, 72 h, PC-3, average of 4 tests, read-out: survival rate (inhibition effect), Average): 44.1%
- viability at 10 µM (PC-3; PC-3, PC-3, 72 h, run PC-3-0524-10 min, read-out: survival rate (inhibition effect)): 33.5%
- viability at 10 µM (PC-3; PC-3, PC-3, 72 h, run PC-3-0526-10 min, read-out: survival rate (inhibition effect)): 61.6%
- viability at 10 µM (PC-3; PC-3, PC-3, 72 h, run PC-3-0529-10 min, read-out: survival rate (inhibition effect)): 39.3%
- viability at 10 µM (PC-3; PC-3, PC-3, 72 h, run PC-3-0531-10 min, read-out: survival rate (inhibition effect)): 41.8%
- viability at 10 µM ([3]; MCF7, 72 h, MCF7, average of 4 tests, read-out: survival rate (inhibition effect), Average): 51.2%
- viability at 10 µM ([3]; MCF7, MCF7, 72 h, run 0612-10 min, read-out: survival rate (inhibition effect)): 47.7%
- viability at 10 µM ([3]; MCF7, MCF7, 72 h, run 0614-10 min, read-out: survival rate (inhibition effect)): 50%
- viability at 10 µM ([3]; MCF7, MCF7, 72 h, run 0616-10 min, read-out: survival rate (inhibition effect)): 55.4%
- viability at 10 µM ([3]; MCF7, MCF7, 72 h, run 0619-10 min, read-out: survival rate (inhibition effect)): 51.6%
- viability at 10 µM (NIH-OVCAR-3; OVCAR-3, 72 h, NIH-OVCAR-3, average of 4 tests, read-out: survival rate (inhibition effect), Average): 86%
- viability at 10 µM (NIH-OVCAR-3; OVCAR-3, NIH-OVCAR-3, 72 h, run 7-3-30 min, read-out: survival rate (inhibition effect)): 80.2%
- viability at 10 µM (NIH-OVCAR-3; OVCAR-3, NIH-OVCAR-3, 72 h, run 7-4-30 min (fourth column), read-out: survival rate (inhibition effect)): 97.8%
- viability at 10 µM (NIH-OVCAR-3; OVCAR-3, NIH-OVCAR-3, 72 h, run 7-4-30 min (second column), read-out: survival rate (inhibition effect)): 81.9%
- viability at 10 µM (NIH-OVCAR-3; OVCAR-3, NIH-OVCAR-3, 72 h, run 7-7-30 min, read-out: survival rate (inhibition effect)): 83.9%
- viability at 10 µM [4, 6]: 58%
- viability at 10 µM ([4]; run 0616-10 min, read-out: survival rate (inhibition effect)): 54.1%
- viability at 10 µM ([4]; run 0619-10 min, read-out: survival rate (inhibition effect)): 51.5%
- viability at 10 µM ([4]; run 0621-10 min, read-out: survival rate (inhibition effect)): 77.3%
- viability at 10 µM ([4]; run 0623-10 min, read-out: survival rate (inhibition effect)): 48.9%
- viability at 10 µM (AsPC-1; ASPC1, 72 h, AsPC-1, average of 4 tests, read-out: survival rate (inhibition effect), Average): 77%
- viability at 10 µM (AsPC-1; ASPC1, AsPC-1, 72 h, run 1-4-30 min, read-out: survival rate (inhibition effect)): 72.5%
- viability at 10 µM (AsPC-1; ASPC1, AsPC-1, 72 h, run 1-7-3-30 min, read-out: survival rate (inhibition effect)): 78.8%
- viability at 10 µM (AsPC-1; ASPC1, AsPC-1, 72 h, run 1-7-4-30 min, read-out: survival rate (inhibition effect)): 87.3%
- viability at 10 µM (AsPC-1; ASPC1, AsPC-1, 72 h, run 1-7-7-30 min, read-out: survival rate (inhibition effect)): 69.3%
- viability at 10 µM (BxPC-3; BXPC-3, 72 h, BxPC-3, average of 4 tests, read-out: survival rate (inhibition effect), Average): 77.7%
- viability at 10 µM (BxPC-3; BXPC-3, BxPC-3, 72 h, run 3-4-30 min, read-out: survival rate (inhibition effect)): 87%
- viability at 10 µM (BxPC-3; BXPC-3, BxPC-3, 72 h, run 3-7-3-30 min, read-out: survival rate (inhibition effect)): 59.7%
- viability at 10 µM (BxPC-3; BXPC-3, BxPC-3, 72 h, run 3-7-4-30 min, read-out: survival rate (inhibition effect)): 93.7%
- viability at 10 µM (bladder cancer cells): 69.1%
- viability at 10 µM (prostate cancer cells): 44.1%
- viability at 10 µM (gastric cancer cells): 26.3%
- viability at 10 µM (skin cancer cells): 51%
- Tumor volume growth, average [5, 7]: −8.333 mm3
- volume, average [5, 7]: 63.333 mm3
- longest length [5, 8]: 6 mm and 4 mm
- width [5, 8]: 6 mm and 5 mm and 4 mm
- Tumor volume growth, average [5, 9]: 113.1667 mm3
- volume, average [5, 9]: 113.1667 mm3
- Tumor volume growth [5, 10]: 87.5 mm3 and 144 mm3 and 108 mm3
- longest length [5, 10]: 7 mm and 8 mm and 6 mm
- volume [5, 10]: 87.5 mm3 and 144 mm3 and 108 mm3
- width [5, 10]: 5 mm and 6 mm
- Tumor volume growth, average [5, 11]: −18.167 mm3
- volume, average [5, 11]: 71.667 mm3
- longest length [5, 12]: 6 mm and 4 mm
- width [5, 12]: 6 mm and 4 mm and 5 mm
- Tumor volume growth, average [5, 13]: −4.167 mm3
- volume, average [5, 13]: 109 mm3
- longest length [5, 14]: 6 mm and 7 mm
- volume [5, 14]: 75 mm3 and 126 mm3
- width [5, 14]: 5 mm and 6 mm
- Tumor volume growth, average [5, 15]: −19.167 mm3
- volume, average [5, 15]: 89.833 mm3
- longest length [5, 16]: 7 mm
- width [5, 16]: 6 mm and 4 mm and 5 mm
- Tumor volume growth, average [5, 17]: 0 mm3
- volume, average [5, 17]: 0 mm3
- Tumor volume growth [5, 18]: 0 mm3
- longest length [5, 18]: 0 mm
- volume [5, 18]: 0 mm3
- width [5, 18]: 0 mm
- Tumor volume growth, average [5, 19]: 78.5 mm3
- volume, average [5, 19]: 78.5 mm3
- longest length [5, 20]: 6 mm and 8 mm and 7 mm
- width [5, 20]: 4 mm and 5 mm
- Tumor volume growth, average [5, 21]: −13.33 mm3
- volume, average [5, 21]: 0 mm3
- longest length [5, 22]: 0 mm
- volume [5, 22]: 0 mm3
- width [5, 22]: 0 mm
- Tumor volume growth, average [5, 23]: −25.8333 mm3
- volume, average [5, 23]: 52.67 mm3
- longest length [5, 24]: 6 mm and 5 mm and 7 mm
- width [5, 24]: 4 mm and 3 mm and 5 mm
- Tumor volume growth, average [5, 25]: −39.33 mm3
- volume, average [5, 25]: 13.333 mm3
- inhibition effect on tumor cells ([5]; both low dose and high dose, FIG. 2): significant inhibition effect
- Tumor volume growth ([5]; both low dose and high dose, FIG. 3): effectively slow down the tumor volume growth
- inhibition of tumor growth, high doses compared with low ([5]; high doses, FIG. 3): better effect to inhibit tumor growth
